Data from paper PMC4806491, “The milk-derived fusion peptide, ACFP, suppresses the growth of primary human ovarian cancer cells by regulating apoptotic gene expression and signaling pathways” (BMC Cancer, 2016).
Positions of bridges follow the written chain, without caps; N, C: chain ends. Residues, ends and D or L forms follow the SMILES beside them.

Tests used:
[1] = tested on: normal ovarian glandular epithelium cells (NOGECs); assay: WST-1 viability assay, general toxicity; type: cell-based, human; conditions: WST-1, compared with paclitaxel, Fig. 3b, cells from 7 patients
Protocol: Fresh primary ovarian tumor tissues that were assessed and classified as serous ovarian adenocarcinoma (III-IV grade) according to WHO criteria were collected from 53 ovarian cancer patients who underwent initial debulking surgery at the first affiliated hospital of Anhui Medical University between June 2012 and June 2014. All patients had not received adjuvant therapies, such as chemotherapy or radiotherapy, prior to surgery. For comparison, normal ovarian glandular epithelium cells (NOGECs) were cultured from fresh primary normal ovarian tissues harvested from 7 patients with uterine fibromas, which were confirmed as negative for any neoplastic disease by pathological examination. […] To determine purity, cells were analyzed using immunofluorescence of cytokeratin 7 (for ovarian cancer cells) or cytokeratin 19 (for normal ovarian epithelium cells).
Primary ovarian cancer cells were seeded into 96-well plates in sextuplicate at a starting density of 5 × 10^3 cells/well and incubated with ACFP at the concentrations: 0 (as control), 5 × 10^−6, 5 × 10^−5, 5 × 10^−4, 5 × 10^−3, 5 × 10^−2, 5 × 10^−1 and 5 g/L for 24, 48 and 72 h, respectively. […] Cell viability was later measured using the WST-1 (water-soluble tetrazolium 1) cell viability and cytotoxicity assay kit (Beyotime, Haimen, China) according to the manufacturer’s instructions. […]

[2] = solubility in water and octanol; type: physicochemical

Structure (SMILES): CC[C@H](C)[C@@H]1NC(=O)[C@H](CO)NC(=O)[C@@H]2CCCN2C(=O)[C@H](C)NC(=O)CNC(=O)[C@H](CC(C)C)NC(=O)[C@H](CCCCN)NC(=O)[C@H](CCCCN)NC(=O)[C@H](CCSC)NC(=O)[C@H](CCCNC(=N)N)NC(=O)[C@H](Cc2c[nH]c3ccccc23)NC(=O)[C@H](CCC(N)=O)NC(=O)[C@H](Cc2c[nH]c3ccccc23)NC(=O)[C@H](CCCNC(=N)N)NC(=O)[C@H](CCCNC(=N)N)NC(=O)[C@@H](NC(=O)[C@H](CCCCN)NC(=O)[C@@H](N)Cc2ccccc2)CSSC[C@@H](C(=O)N[C@H](C(=O)N[C@@H](CCCNC(=N)N)C(=O)N[C@@H](CCCNC(=N)N)C(=O)N[C@@H](C)C(=O)N[C@@H](Cc2ccccc2)C(=O)NCC(=O)NCC(=O)NCC(=O)NCC(=O)N[C@@H](CO)C(=O)N2CCC[C@H]2C(=O)NCC(=O)N2CCC[C@H]2C(=O)N[C@H](C(=O)N2CCC[C@H]2C(=O)N[C@@H](CC(N)=O)C(=O)O)[C@@H](C)CC)C(C)C)NC(=O)[C@H]([C@@H](C)O)NC1=O [ACFP] (H-FKCRRWQWRMKKLGAPSITCVRRAFGGGGSPGPIPN-OH; disulfide 3-20; N-terminus and C-terminus assumed)
- cytotoxicity toward normal primary ovarian cells [1]: little or no cytotoxicity
- solubility in fat (octanol) [2]: slightly soluble
- solubility in water [2]: easily dissolve
